Tested on: 233499-124-R-J3-PDC complex spheroid viability
Assay: Anticancer human tumor 233499-124-R-J3-PDC patient-derived colon adenocarcinoma cell line growth inhibition [CLK]
Conditions: for IC50: curve of first compound; for viability, T/C: stronger effect = lower value
Text: A high-throughput screen of multi-cell type tumor spheroids was designed to identify active combinations of […] and targeted small molecules. Complex spheroids include a stromal component modeled by human endothelial cells (HUVEC) and fibroblasts modeled by human mesenchymal stem cells (MSCs). The concentration ranges selected for each drug and investigational agent were based upon clinically achievable concentrations if the clinical Cmax of the agent was known.
Compounds. The drugs and investigational agents: cirtuvivint (SM08502; NSC835563), CC-671 (NSC850746), vemurafenib (NSC761431), tapotoclax (NSC804041), sotorasib (NSC818433), adagrasib (NSC831453), MRTX-1133 (NSC836407), BAY2416964 (NSC825713), copanlisib (NSC816437), inavolisib (NSC800729), abemaciclib (NSC768073), osimertinib (NSC779217), entinostat (NSC756642), eltanexor (KPT-8602, NSC794443), venetoclax (NSC766270), ceralasertib (NSC777638), bortezomib (NSC756655), olaparib (NSC753686), talazoparib (NSC767125), alisertib (NSC759677), peposertib (NSC802822), gemcitabine (NSC613327), 5-fluorouracil (NSC19893), SN-38 (NSC673596), oxaliplatin (NSC266046), paclitaxel (NSC125973), and doxorubicin (NSC123127), were obtained from the National Cancer Institute (NCI) Developmental Therapeutics Program Chemical Repository. The FDA-approved anticancer drug set is available from the Developmental Therapeutics Program at https://dtp.cancer.gov/organization/dscb/obtaining/available plates.htm. […] The stock solutions were prepared in dimethyl sulfoxide (DMSO, Sigma-Aldrich, St. Louis, MO, cat. D2650), except for the platinum complexes which were prepared in saline (Quality Biological, Gaithersburg, MD, cat. 114-055-101), at 800-fold the tested concentration and stored at -70 degrees C prior to their use. All drugs and investigational agents were tested over a range starting from a high concentration at or near the clinical Cmax and decreasing in half-log increments. If the clinical Cmax for an agent had not been determined, the highest concentration tested was 10 microM.
Cell Culture. All cells were maintained in an incubator at 37 degrees C and 5% CO2 with 95% humidity. The PDC lines were cultured according to standard operating procedures established by the NCI PDMR. Briefly, all PDCs were thawed and cultured in Matrigel-coated flasks prepared with a working solution of 1X Ham's F-12 nutrient mix, without supplementation (Invitrogen, Waltham, MA, cat. 11765054), 100 U/mL penicillin-streptomycin (Invitrogen, cat. 15140122), and 2.5% Matrigel (Corning Inc., Corning, NY, cat. 354248) for the first three passages. The 947758-054-R-J2-PDC line was cultured in 6B/Colon 1A media, which includes advanced DMEM/F-12 (Thermo Fisher Scientific, cat. 12634028), 10 mM HEPES (Thermo Fisher Scientific, cat. 15630080), 1X GlutaMAX supplement (Thermo Fisher Scientific, cat. 35050061), 0.1 mg/mL primocin (InvivoGen, cat. ant-pm-2), 10% defined fetal bovine serum, heat inactivated (HyClone Laboratories Inc., cat. SH30070.03HI), 1.25 mM N-Acetyl-L-cysteine (Sigma-Aldrich, cat. A9165), 10 mM nicotinamide (Sigma-Aldrich, cat. N0636), 1X B-27 supplement (Thermo Fisher Scientific, cat. 17504044), 1X N-2 supplement (Thermo Fisher Scientific, cat. 17502048), and 10 microM Y-27632 dihydrochloride (Tocris Bioscience, cat. 1254). The 876862-298-R-J1-PDC was cultured in 6E media, which includes all 6B/Colon 1A media components plus 50% L-WRN conditioned media (ATCC, cat. CRL-3276), 50 ng/mL recombinant human EGF recombinant protein (hEGF; Thermo Fisher Scientific, cat. PHG0311), 10 ng/mL recombinant human fibroblast growth factor 10 (hGFG-10; PeproTech, cat. 100-26), 1 ng/mL recombinant human fibroblast growth factor 2 (hFGF-2; PeproTech, cat. 100-18B), and 1 µM prostaglandin E2 (PGE2; Tocris, cat. 2296). The 227483-062-R1-J1-PDC line was cultured in Panc media, containing all 6E components except hFGF-2, with the addition of 500 nM SB-431542 (Selleckchem, cat. S1067) and 10 nM gastrin (Tocris, cat. 3006). […]
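Also: spheroids exposed to the drug combinations for seven days.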
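For viability, T/C in this document: percent viability relative to DMSO vehicle control wells taken as 100%.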

## COC1C=CCC(C)C(C)S(=O)(=O)NC(=O)c2ccc3c(c2)N(CC2CCC21)CC1(CCCc2cc(Cl)ccc21)CO3 (configuration not stated) + CN1CCN(c2cc(C(=O)Nc3cc4cc(-c5cnn(C)c5)ccc4cn3)ccn2)CC1
Second compound 0.0316 µM
  IC50: 3890 nM
Second compound 0.1 µM
  IC50: 3650 nM
Second compound 0.316 µM
  IC50: 270 nM
Second compound 1 µM
  IC50: < 31.6 nM
Second compound 3.16 µM
  IC50: < 31.6 nM
Second compound 10 µM
  IC50: < 31.6 nM
Second compound 0.0316 µM, first compound 0.0316 µM
  viability, T/C: 93.9%
Second compound 0.0316 µM, first compound 0.1 µM
  viability, T/C: 98%
Second compound 0.0316 µM, first compound 0.316 µM
  viability, T/C: 94.6%
Second compound 0.0316 µM, first compound 1 µM
  viability, T/C: 80.2%
Second compound 0.0316 µM, first compound 3.16 µM
  viability, T/C: 60.4%
Second compound 0.0316 µM, first compound 10 µM
  viability, T/C: 7.46%
Second compound 0.1 µM, first compound 0.0316 µM
  viability, T/C: 98.8%
Second compound 0.1 µM, first compound 0.1 µM
  viability, T/C: 98.6%
Second compound 0.1 µM, first compound 0.316 µM
  viability, T/C: 90.5%
Second compound 0.1 µM, first compound 1 µM
  viability, T/C: 79.7%
Second compound 0.1 µM, first compound 3.16 µM
  viability, T/C: 57.3%
Second compound 0.1 µM, first compound 10 µM
  viability, T/C: 7.28%
Second compound 0.316 µM, first compound 0.0316 µM
  viability, T/C: 91.5%
Second compound 0.316 µM, first compound 0.1 µM
  viability, T/C: 80%
Second compound 0.316 µM, first compound 0.316 µM
  viability, T/C: 46.5%
Second compound 0.316 µM, first compound 1 µM
  viability, T/C: 13.9%
Second compound 0.316 µM, first compound 3.16 µM
  viability, T/C: 30.5%
Second compound 0.316 µM, first compound 10 µM
  viability, T/C: 3.11%
Second compound 1 µM, first compound 0.0316 µM
  viability, T/C: 0.62%
Second compound 1 µM, first compound 0.1 µM
  viability, T/C: 1.27%
Second compound 1 µM, first compound 0.316 µM
  viability, T/C: 0.44%
Second compound 1 µM, first compound 1 µM
  viability, T/C: 0.32%
Second compound 1 µM, first compound 3.16 µM
  viability, T/C: 0.78%
Second compound 1 µM, first compound 10 µM
  viability, T/C: 0.58%
Second compound 3.16 µM, first compound 0.0316 µM
  viability, T/C: 0.45%
Second compound 3.16 µM, first compound 0.1 µM
  viability, T/C: 0.45%
Second compound 3.16 µM, first compound 0.316 µM
  viability, T/C: 0.5%
Second compound 3.16 µM, first compound 1 µM
  viability, T/C: 0.44%
Second compound 3.16 µM, first compound 3.16 µM
  viability, T/C: 0.43%
Second compound 3.16 µM, first compound 10 µM
  viability, T/C: 0.31%
Second compound 10 µM, first compound 0.0316 µM
  viability, T/C: 0.31%
Second compound 10 µM, first compound 0.1 µM
  viability, T/C: 0.28%
Second compound 10 µM, first compound 0.316 µM
  viability, T/C: 0.31%
Second compound 10 µM, first compound 1 µM
  viability, T/C: 0.3%
Second compound 10 µM, first compound 3.16 µM
  viability, T/C: 0.29%
Second compound 10 µM, first compound 10 µM
  viability, T/C: 0.22%

— PubChem BioAssay AID2060613 (Molecular Pharmacology Branch, DTP, NCI, 2025)
